Assay results from US6291540A, “Non-toxic initiators and their use for preparing stable and non-toxic polymers” (Rhodia Chimie, priority 1997, dated 2001).

Legend:
LLNA sensitization test = format: in vivo; conditions: cytotoxicity can also be detected
Procedure: (§1) The tests carried out to measure the toxicity of the initiators are the Ames test and the LLNA sensitization test. The Ames test makes it possible to measure the mutagenic power of the initiator and the LLNA sensitization test makes it possible to detect the sensitizing power of the initiator. The cytotoxicity of the initiators can also be detected in this latter test (see examples).
The following toxicology tests were carried out:
LLNA sensitization test: this test makes it possible to detect the sensitizing power of the product. The cytotoxicity of the products can also be detected in the course of the test.
Table I below indicates the results obtained for the various photoinitiators prepared above.

[1] = Ames test (mutagenic power); format: cell-based
Procedure: as §1, with “examples). The following toxicology tests were carried out: Ames test: this Ames test makes it possible to measure the mutagenic power of the product Table I below indicates the results obtained for the various photoinitiators prepared above.” for “examples).”

[2] = Reactivity under UV irradiation of the photoinitiator; conditions: compared with the other toxic photo-initiators
Source text: The crosslinkable compositions comprise the non-toxic initiator prepared in Example 4.

Row | SMILES | LLNA sensit. (LLNA sensitization test) | Ames [1] | reactivity under UV irradiation [2]
1 | Cc1ccc([I+]c2ccc(C)cc2)cc1 [Example 1, ditolyliodonium chloride] | cytotoxic | cytotoxic | 
2 | Cc1ccc([I+]c2ccc(C)cc2)cc1 [Example 2] | positive | positive | 
3 | Cc1ccc([I+]c2ccc(C(C)C)cc2)cc1 [Example 3, cumyltolyliodonium chloride] | negative | negative | 
4 | Cc1ccc([I+]c2ccc(C(C)C)cc2)cc1 [Example 4] |  |  | comparable
5 | CCOc1ccc([I+]c2ccc(C)cc2)cc1 [Example 8] | positive | positive and cytotoxic | 
6 | Cc1ccc([I+]c2ccc(Oc3ccccc3)cc2)cc1 [Example 9] | negative | cytotoxic | 
7 | CC(C)c1ccc([I+]c2ccc(C(C)C)cc2)cc1 [Example 10] | positive | negative | 
8 | COc1ccc([I+]c2ccc(OC)cc2)cc1 [Example 11] | cytotoxic | cytotoxic | 
